The record followed here is patent US7199148B2, “Broadspectrum substituted oxindole sulfonamide HIV protease inhibitors” (priority 2002, dated 2007).

Read-outs that look alike come from different tables or passages of the source.

What all share (format): cell-based
One data set deals with HIV strain A. As to the kind of experiment: Antiviral spectrum, clinically isolated mutant strain A. As to conditions: FR=EC50(mutant strain)/EC50(HIV-1 strain LAI). The procedure:
(§1) HIV- or mock-infected MT4 cells were incubated for five days in the presence of various concentrations of the inhibitor. At the end of the incubation period, all HIV-infected cells have been killed by the replicating virus in the control cultures in the absence of any inhibitor. Cell viability is measured by measuring the concentration of MTT, a yellow, water soluble tetrazolium dye that is converted to a purple, water insoluble formazan in the mitochondria of living cells only. Upon solubilization of the resulting formazan crystals with isopropanol, the absorbance of the solution is monitored at 540 nm. The values correlate directly to the number of living cells remaining in the culture at the completion of the five day incubation. The inhibitory activity of the compound was monitored on the virus-infected cells and was expressed as EC50 and EC90. These values represent the amount of the compound required to protect 50% and 90%, respectively, of the cells from the cytopathogenic effect of the virus. The toxicity of the compound was measured on the mock-infected cells and was expressed as CC50, which represents the concentration of compound required to inhibit the growth of the cells by 50%. The selectivity index (SI) (ratio CC50/EC50) is an indication of the selectivity of the anti-HIV activity of the inhibitor. Wherever results are reported as e.g. pEC50 or pCC50 values, the result is expressed as the negative logarithm of the result expressed as EC50 or CC50 respectively.
(§2) Because of the increasing emergence of drug resistant HIV strains, the present compounds were tested for their potency against clinically isolated HIV strains harboring several mutations (Table 2 and 3). These mutations are associated with resistance to protease inhibitors and result in viruses that show various degrees of phenotypic cross-resistance to the currently commercially available drugs such as for instance saquinavir, ritonavir, nelfinavir, indinavir and amprenavir.
(§3) As a measure of the broad spectrum activity of the present compounds, the fold resistance (FR), defined as FR=EC50(mutant strain)/EC50(HIV-1 strain LAI), was determined.

For a further data set, the system named is HIV strain E. As to the kind of experiment: Antiviral spectrum, clinically isolated mutant strain E. Conditions: FR=EC50(mutant strain)/EC50(HIV-1 strain LAI). The protocol:
as §1, §2, §3

For another data set, the system named is HIV strain D. Put plainly: Antiviral spectrum, clinically isolated mutant strain D. As to conditions: FR=EC50(mutant strain)/EC50(HIV-1 strain LAI). The procedure: as §1, §2, §3
In a further data set the test system is HIV strain C. As to the kind of experiment: Antiviral spectrum, clinically isolated mutant strain C. Conditions: FR=EC50(mutant strain)/EC50(HIV-1 strain LAI). The procedure:
as §1, §2, §3

For a further data set, the system named is HIV-1 strain LAI. Put plainly: Cellular anti-HIV assay, MT4 cells, MTT read-out, wild type strain. The protocol: as §1, with “The compounds of the present invention were examined for anti-viral activity in a cellular assay. […] The cellular assay was performed according to the following procedure. HIV- or” for “HIV- or”
The subject of another data set is HIV strain B. Put plainly: Antiviral spectrum, clinically isolated mutant strain B. As to conditions: FR=EC50(mutant strain)/EC50(HIV-1 strain LAI). The protocol: as §1, §2, §3
The test system of the next data set is HIV strain F. Put plainly: Antiviral spectrum, clinically isolated mutant strain F. Conditions: FR=EC50(mutant strain)/EC50(HIV-1 strain LAI). The protocol:
as §1, §2, §3

The nature of data set [1]: Toxicity on mock-infected MT4 cells (MTT). Conditions: human. The procedure: as §1, §3

What is called CC50 is the concentration giving 50% cytotoxicity. For `COc1ccc(C=C2C(=O)Nc3ccc(S(=O)(=O)N(CC(C)C)CC(O)C(Cc4ccccc4)NC(=O)OC4COC5OCCC45)cc32)cc1` (stereo not drawn) [Compound 8, (1-Benzyl-2-hydroxy-3-{isobutyl-[3-(4-methoxy-benzylidene)-2-oxo-2,3-dihydro-1H-indole-5-sulfonyl]-amino}-propyl)-carbamic acid hexahydro-furo[2,3-b]furan-3-yl ester], the “A (FR towards mutant A)” value in the data set with HIV strain A is reported as 1.7. The “E (FR towards mutant E)” value in the data set on HIV strain E stood at 2.0. Moreover, the “D (FR towards mutant D)” value in the data set on HIV strain D was found to be 1.5. The “C (FR towards mutant C)” value with HIV strain C worked out at 1.5. Further, the EC50 in the data set on HIV-1 strain LAI (Human immunodeficiency virus 1, 120 h, Table 1, MT4 cells, five days incubation, HIV-1 strain LAI, read-out: pEC50 (converted)) is 20 nM; in the data set on HIV-1 strain LAI (Human immunodeficiency virus 1, MT4, Table 3, wild type HIV-LAI strain, read-out: WT (pEC50) (converted)) it was 20 nM. The “B (FR towards mutant B)” value with HIV strain B is reported as 5.0. The “F (FR towards mutant F)” value with HIV strain F came to 1.7. In data set [1], this compound showed a CC50 at 5 days of 63100 nM.
